Legend:
[1] = tested on: wild-type LRRK2 overexpressing cells; assay: Process length in wild-type LRRK2 overexpressing primary cortical neurons; format: cell-based, rat; conditions: 10 μM
Excerpt: FIGS. 8A-8B. […] N=25 for each group. […] N=10 for each group.
Cell Culture and Transfection.

[2] = tested on: PD-associated LRRK2 mutant; assay: Formation of LC3-GFP labeled aggregates in neurites / PD-associated LRRK2 pathology; format: cell-based
Excerpt: A method is disclosed for treating a neurodegenerative disease, for example, Parkinson's Disease associated with a mutant of leucine-rich repeat kinase-2 (LRRK2), with NMDA antagonists. The methods include assessing accumulation of LC3-GFP labeled aggregates. The methods may be carried out on primary neurons in vitro in a cell culture, or in vivo in an animal. In one embodiment, the cell is a post-mitotic neuron. In another embodiment, the post-mitotic neuron is a cortical neuron, a dopamine neuron, or a sympathetic neuron.
Mutations in LRRK2 underlie an autosomal dominant, inherited form of Parkinson's disease (PD) that mimics all of the clinical features of the common sporadic form of PD. The LRRK2 protein includes putative GTPase, protein kinase, WD40 repeat, and leucine rich repeat (LRR) domains of unknown function.

Compound | process length in wild-type LRRK2 overexpressing cells [1] | PD-associated LRRK2 pathology [2] | formation of LC3-GFP labeled aggregates in neurites [2]
NC1(C(=O)O)CCC1 [1-aminocyclobutane carboxylic acid] | do not alter process length | – | –
N[C@@H](CCC(=O)N[C@@H](CS)C(=O)NCC(=O)O)C(=O)O [glutathione] | do not alter process length | – | –
Oc1ccc(O)cc1 [hydroquinone] | do not alter process length | – | –
Nc1ccccc1C(=O)CC(N)C(=O)O (stereo not shown) [kynurenine] | do not alter process length | – | –
O=C1CC(c2ccccc2)Oc2ccccc21 (stereo not shown) [flavanone] | do not alter process length | – | –
O=c1c(-c2cccc(Oc3ccccc3)c2)c(O)[nH]c2cc(Cl)ccc12 [L-701,324, 7-chloro-2-hydroxy-3-[3-(phenoxy)phenyl]-1H-quinolin-4-one] | – | ameliorated | ameliorated
